# Assay results from EPA's ToxValDB 9.5.
# “And” between values parts separate entries of the source, which are not always exact repeats. Equal values may be shown once.
# Key:
# Rattus norvegicus [1] = tested on: Rattus norvegicus
# Rattus norvegicus [2] = details: subchronic; oral; gavage; M; Sprague-Dawley; Clinical Observation: Prone position Lateral position Locomotor activity decrease + Functional Observational Battery: Prone position Lateral…
# [3] = acute, duration: 4 hours, inhalation, M, Bone Marrow: Bone Marrow Histopathology + Spleen: Spleen Histopathology + Whole Body: Clinical Signs
# [4] = reproduction developmental, duration: 9 days, inhalation, F, generation: P0, P0: Whole Body: Maternal Body Weight, Initial
# [5] = reproduction developmental, duration: 9 days, inhalation, M/F, generation: F1, F1: Vertebra: Thoracic Centrum, Dipartite Ossification
# [6] = reproduction developmental, duration: 14 days, oral, gavage, F, Crj:CD, generation: P0, P0: Uterus: >=6 Days of Diestrus + P0: Uterus: Estrous Cycle, Length + P0: Whole Body: Delivery Index + P0: Whole Body: Length of Gestation…
# [7] = reproduction developmental, duration: 14 days, oral, gavage, M/F, Crj:CD, generation: F1, F1: Whole Body: Live Birth Index + F1: Whole Body: Live Pups Born + F1: Whole Body: Survival + F1: Whole Body: Viability Index
# [8] = reproduction developmental, duration: 42 days, oral, gavage, M, Crj:CD, generation: P0, P0: Whole Body: Percent Mating
# [9] = short-term, duration: 14 days, oral, gavage, F, Crj:CD, Liver: Cholesterol (CHOL), Total
# [10] = subchronic, duration: 42 days, oral, gavage, M, Crj:CD, Adrenal: Adrenal Gland Weight, Absolute + Liver: Aspartate Aminotransferase (AST) + Spleen: Spleen Weight, Relative
structure (smiles),measurement,setting,value
OC(C(F)(F)F)C(F)(F)F [2H-Perfluoro-2-propanol],LOAEL,Rattus norvegicus [1]; [3],5500 mg/m3
same,NOAEL,Rattus norvegicus [1]; [3],1370 mg/m3 and 1380 mg/m3
same,LOAEL,"Rattus norvegicus [1]; acute, duration: 4 hours, inhalation, M, Brain: Brain Histopathology + Brain: Brain Pathology + Duodenum: Duodenum Histopathology + Heart: Heart Histopathology + Kidney: Kidney …",1370 mg/m3 and 1380 mg/m3
same,NOAEL,"Rattus norvegicus [1]; developmental, duration: 9 days, inhalation, M/F, generation: F1, F1: Rib: Rib, Wavy + F1: Skin: Petechial Hemorrhages + F1: Skin: Subcutaneous Hematoma, Small + F1: Skull: Hyoid Body, Unossified + F1: …",1380 mg/m3 and 1370 mg/m3
same,NOAEL,"Rattus norvegicus [1]; reproduction developmental, duration: 9 days, inhalation, F, generation: P0, P0: Ovary: Corpora Lutea + P0: Uterus: Mean Implantations/Litter + P0: Uterus: Resorptions, Early + P0: Uterus: Resorptions, Late + P0: …",1380 mg/m3 and 1370 mg/m3
same,LOAEL,Rattus norvegicus [1]; [4],1380 mg/m3 and 1370 mg/m3
same,NOAEL,Rattus norvegicus [1]; [4],207 mg/m3 and 206 mg/m3
same,LOAEL,"Rattus norvegicus [1]; reproduction developmental, duration: 9 days, inhalation, M/F, generation: F1, F1: Kidney: Hydronephrosis + F1: Rib: 14th Rudimentary Rib",207 mg/m3 and 206 mg/m3
same,LOAEL,Rattus norvegicus [1]; [5],1380 mg/m3 and 1370 mg/m3
same,NOAEL,Rattus norvegicus [1]; [5],207 mg/m3 and 206 mg/m3
same,LOAEL,"Rattus norvegicus [1]; reproduction developmental, duration: 14 days, oral, gavage, F, Crj:CD, generation: F1, F1: Whole Body: Pup Weight Relative to Litter",300 mg/kg-day
same,NOAEL,"Rattus norvegicus [1]; reproduction developmental, duration: 14 days, oral, gavage, F, Crj:CD, generation: P0, P0: Ovary: Corpora Lutea + P0: Uterus: Estrous Cycle, Irregular + P0: Uterus: Estrous Stages/ 21 Days + P0: Uterus: Implantation + P0: …",300 mg/kg-day
same,LOAEL,Rattus norvegicus [1]; [6],300 mg/kg-day
same,NOAEL,Rattus norvegicus [1]; [6],60 mg/kg-day
same,LOAEL,Rattus norvegicus [1]; [7],300 mg/kg-day
same,NOAEL,Rattus norvegicus [1]; [7],60 mg/kg-day
same,NOAEL,"Rattus norvegicus [1]; reproduction developmental, duration: 14 days, oral, gavage, M/F, Crj:CD, generation: F1, F1: Whole Body: Male Pups per Pups Sexed + F1: Whole Body: Male Pups per Pups Sexed, Live Offspring",300 mg/kg-day
same,LOAEL,"Rattus norvegicus [1]; reproduction developmental, duration: 14 days, oral, gavage, M, Crj:CD, generation: F1, F1: Whole Body: Pup Weight Relative to Litter",300 mg/kg-day
same,NOAEL,"Rattus norvegicus [1]; reproduction developmental, duration: 42 days, oral, gavage, M, Crj:CD, generation: P0, P0: Whole Body: Days of Cohabitation + P0: Whole Body: Fertility Index",300 mg/kg-day
same,LOAEL,Rattus norvegicus [1]; [8],300 mg/kg-day
same,NOAEL,Rattus norvegicus [1]; [8],60 mg/kg-day
same,NOAEL,"Rattus norvegicus [1]; short-term, duration: 14 days, oral, gavage, F, Crj:CD, Adrenal: Adrenal Gland Histopathology + Adrenal: Adrenal Gland Weight, Absolute + Adrenal: Adrenal Gland Weight, Relative + Basophils + …",300 mg/kg-day
same,LOAEL,"Rattus norvegicus [1]; short-term, duration: 14 days, oral, gavage, F, Crj:CD, Calcium (CA) + Central Nervous System: CNS Depression + Liver: Hepatocellular Hypertrophy + Liver: Liver Weight, Relative, Recovery + …",300 mg/kg-day
same,NOAEL,"Rattus norvegicus [1]; short-term, duration: 14 days, oral, gavage, F, Crj:CD, Calcium (CA) + Central Nervous System: CNS Depression + Liver: Hepatocellular Hypertrophy + Peripheral Nervous System: Aerial Righting …",60 mg/kg-day
same,LOAEL,Rattus norvegicus [1]; [9],60 mg/kg-day
same,NOAEL,Rattus norvegicus [1]; [9],10 mg/kg-day
same,NOAEL,"Rattus norvegicus [1]; subchronic, duration: 42 days, oral, gavage, M, Crj:CD, Adrenal: Adrenal Gland Histopathology + Adrenal: Adrenal Gland Weight, Absolute, Recovery + Adrenal: Adrenal Gland Weight, Relative, …",300 mg/kg-day
same,LOAEL,Rattus norvegicus [1]; [10],60 mg/kg-day
same,NOAEL,Rattus norvegicus [1]; [10],10 mg/kg-day
same,LOAEL,"Rattus norvegicus [1]; subchronic, duration: 42 days, oral, gavage, M, Crj:CD, Adrenal: Adrenal Gland Weight, Relative",10 mg/kg-day
same,LOAEL,"Rattus norvegicus [1]; subchronic, duration: 42 days, oral, gavage, M, Crj:CD, Blood: Platelet Count (PLT) + Blood: Reticulocytes + Brain: Brain Weight, Absolute + Brain: Brain Weight, Absolute, Recovery + Central …",300 mg/kg-day
same,NOAEL,"Rattus norvegicus [1]; subchronic, duration: 42 days, oral, gavage, M, Crj:CD, Blood: Platelet Count (PLT) + Blood: Reticulocytes + Brain: Brain Weight, Absolute + Central Nervous System: CNS Depression + Kidney: Urea …",60 mg/kg-day
same,NOEL,Rattus norvegicus [2],10 mg/kg-day
